# Assays:
# SK-Mel-28 (melanoma) = experiment: Tumor cell proliferation assay, SK-Mel-28; assay type: cell-based; conditions: Homo sapiens, 72h drug exposure, read-out: median IC50
# Procedure: (§1) Biological Assay 4.0: Tumor Cell Proliferation Assays
# (§2) Compounds were tested in a cell-based assay that measures the capacity of the compounds to inhibit tumour cell proliferation following a 72h drug exposure. Cell viability is determined using CellTiter-Glow® (CTG, Promega, cat# G7571/2/3). The CellTiter-Glo® Luminescent Cell Viability Assay is a homogeneous method to determine the number of viable cells in culture. Detection is based on using the luciferase reaction to measure the amount of ATP from viable cells. The amount of ATP in cells correlates with cell viability. Within minutes after a loss of membrane integrity, cells lose the ability to synthesize ATP, and endogenous ATPases destroy any remaining ATP; thus the levels of ATP fall precipitously.
# (§3) Cells were plated at 3000-5000 cells/well (depending on the cell lines) in 90 μL growth medium on MTPs (Corning; #3603, black plate, clear flat bottom). For each cell line assayed, cells were plated onto a separate plate for determination of […] at t=0 hour and t=72 hour time points. Following overnight incubation at 37° C., chemiluminescence values for the t=0 samples were determined after adding 10 μl medium and 100 μl CTG solution according to manufacture protocol. […] Chemiluminescence values for the t=72 hour samples were determined. […]
# Malme-3M (melanoma) = experiment: Tumor cell proliferation assay, Malme-3M; assay type: cell-based; conditions: Homo sapiens, 72h drug exposure, read-out: median IC50
# Procedure: as §1, §2, §3
# U87 (brain) = experiment: Tumor cell proliferation assay, U87; assay type: cell-based; conditions: 72h drug exposure, read-out: median IC50
# Procedure: as §1, §2, §3
# A375 (melanoma) = experiment: Tumor cell proliferation assay, A375; assay type: cell-based; conditions: Homo sapiens, A-375, 72h drug exposure, read-out: median IC50
# Procedure: as §1, §2, §3
# A2058 (melanoma) = experiment: Tumor cell proliferation assay, A2058; assay type: cell-based; conditions: Homo sapiens, 72h drug exposure, read-out: median IC50
# Procedure: as §1, §2, §3
# UACC-62 (melanoma) = experiment: Tumor cell proliferation assay, UACC-62; assay type: cell-based; conditions: Homo sapiens, 72h drug exposure, read-out: median IC50
# Procedure: as §1, §2, §3
# [1] = tested on: KPL-4 breast cancer cell line; experiment: Tumor cell proliferation assay (CellTiter-Glo, 72 h), KPL-4; assay type: cell-based; conditions: KPL4, 72h drug exposure
# Method in brief: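 KPL-4 cells were treated with compound for 72 h at 37°C. Viability was measured as ATP by CellTiter-Glo luminescence, with a separate t=0 plate read after overnight attachment. A reference compound was run as standard.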
# UACC-257 (melanoma) = experiment: Tumor cell proliferation assay, UACC-257; assay type: cell-based; conditions: Homo sapiens, 72h drug exposure, read-out: median IC50
# Procedure: as §1, §2, §3
# HMCB (melanoma) = experiment: Tumor cell proliferation assay, HMCB; assay type: cell-based; conditions: Homo sapiens, 72h drug exposure, read-out: median IC50
# Procedure: as §1, §2, §3
# H1993 (NSCLC) = experiment: Tumor cell proliferation assay, H1993; assay type: cell-based; conditions: Homo sapiens, NCI-H1993, 72h drug exposure, read-out: median IC50
# Procedure: as §1, §2, §3
# MeWo (melanoma) = experiment: Tumor cell proliferation assay, MeWo; assay type: cell-based; conditions: Homo sapiens, 72h drug exposure, read-out: median IC50
# Procedure: as §1, §2, §3
# HT-144 (melanoma) = experiment: Tumor cell proliferation assay, HT-144; assay type: cell-based; conditions: Homo sapiens, 72h drug exposure, read-out: median IC50
# Procedure: as §1, §2, §3
# [2] = tested on: p-AKT1/2/3-S473 in KPL4 breast tumour cell line; experiment: Cellular p-AKT1/2/3-S473 assay; assay type: cell-based; conditions: KPL4 breast tumour cell line, 2 hours treatment; read-out: pAKT-S743 median IC50
# Method in brief: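 KPL4 cells (PIK3CA H1047R, HER2 0/E, hormone independent) were seeded at 60–80% confluency, cultured overnight, then exposed to compound for 2 h at 37 °C. pAKT-S473 and total AKT measured together by MSD Akt Duplex on 20 µg extract; pAKT expressed as % of total AKT, at least duplicate with independent repeats.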
# [3] = target: His-tagged human recombinant kinase full-length Akt1 (Homo sapiens (Human), UniProt P31749); experiment: Akt1 kinase assay (TR-FRET); assay type: biochemical; conditions: 10 μM ATP; read-out: Akt1, median IC50
# Method in brief: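 Full-length His-tagged Akt1 (about 0.05 ng/μl final) preincubated 15 min at 22 °C with compound in 50 mM TRIS/HCl pH 7.5, 5 mM MgCl2, 1 mM DTT, 0.02% Triton X-100; biotinylated peptide substrate. Phosphopeptide detected by TR-FRET (Eu-chelate antibody to streptavidin-XL665) after 1 h at 22 °C.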
# His-tagged human recombinant kinase full-length Akt1, sequence (P31749 whole entry): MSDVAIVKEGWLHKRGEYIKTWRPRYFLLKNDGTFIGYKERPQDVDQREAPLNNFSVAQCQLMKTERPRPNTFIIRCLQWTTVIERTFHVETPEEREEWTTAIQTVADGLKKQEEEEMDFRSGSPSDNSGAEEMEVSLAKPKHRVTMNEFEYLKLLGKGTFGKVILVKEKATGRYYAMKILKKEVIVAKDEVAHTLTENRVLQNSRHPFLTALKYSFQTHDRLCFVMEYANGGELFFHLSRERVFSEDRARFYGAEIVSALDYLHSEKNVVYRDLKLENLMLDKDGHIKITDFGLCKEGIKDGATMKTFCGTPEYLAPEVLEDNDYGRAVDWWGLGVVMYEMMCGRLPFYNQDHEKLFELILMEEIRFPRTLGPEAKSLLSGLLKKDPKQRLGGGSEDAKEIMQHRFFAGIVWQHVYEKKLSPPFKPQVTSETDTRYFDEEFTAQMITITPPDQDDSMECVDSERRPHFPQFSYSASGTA
IC50 (SK-Mel-28 (melanoma)),IC50 (Malme-3M (melanoma)),IC50 (U87 (brain)),IC50 (A375 (melanoma)),IC50 (A2058 (melanoma)),IC50 (UACC-62 (melanoma)),IC50 [1],IC50 (UACC-257 (melanoma)),IC50 (HMCB (melanoma)),IC50 (H1993 (NSCLC)),IC50 (MeWo (melanoma)),IC50 (HT-144 (melanoma)),IC50 [2],IC50 [3],SMILES
2000 nM,1900 nM,4900 nM,2200 nM,2200 nM,2200 nM,1700 nM,1100 nM,2600 nM,600 nM,2000 nM,2300 nM,–,–,NC1(c2ccc(-c3nc4nc(-c5ccccc5)ccn4c3-c3ccccc3)cc2)CCC1 [Example 1-3]
3700 nM,2400 nM,10000 nM,8600 nM,2100 nM,8900 nM,800 nM,2000 nM,8500 nM,500 nM,5200 nM,2100 nM,30 nM,142 nM,"COc1ccn2c(-c3ccccc3)c(-c3ccc(C4(N)CCC4)cc3)nc2n1 [Example 2-0, 1-[4-(7-methoxy-3-phenyl-imidazo[1,2-a]pyrimidin-2-yl)-phenyl]-cyclobutylamine]"

# Source: patent publication US8975265B2, “Substituted imidazo[1,2-a]pyrimidines and —pyridines” (Bayer Intellectual Property GmbH, priority 2010, dated 2015)
